Laboratory results taken from patent US20230099441A1, “HETEROCYCLIC COMPOUND, APPLICATION THEREOF, AND COMPOSITION CONTAINING SAME” (GenEros Biopharma Ltd., priority 2019, published 2023).

Assay: Body weight of animals in the mouse collagen-induced arthritis model
Format: in vivo
Details: oral, X8 1 mg/kg once a day; for body weight of animals, Mean/g: mean of group, Methotrexate 0.25 mg/kg once a week, Tofacitinib 5 mg/kg once a day
Text: Sixty male DBA/1J mice (9-10 weeks old, H-2q haplotype) were acclimatized in a standard animal room for one week and then randomly divided into 5 groups. Except for the healthy control group, the rest were inoculated with collagen antigen injection, and then received oral treatment with different compounds. The brief procedure was to mix bovine type II collagen (purchased from Chondrex, 20021) with an equal volume of Freund's complete adjuvant (purchased from Sigma, F5881), the concentration was 4 mg/ml, and it was treated with a homogenizer at a speed of 20,000 revolutions/min for 5-10 minutes. A needle was inserted between the left side of the dorsal caudal artery and the lateral vein of the mouse, and 50 microliters of modeling agent was injected subcutaneously. 21 days after the first injection, another injection was injected between the right side of the dorsal tail artery and the lateral vein of the mouse. After the first injection, oral administration was started. The drug was formulated with […] PEG300, and it was prepared for immediate use. […] The total score was between 0-12 points, and the swelling of the foot after vaccination was not calculated.

O=C(Cc1ccc(C(F)(F)F)cc1)N1CCC(n2c(=O)[nH]c3ccccc32)CC1 [Example X8, 1-(1-(2-(4-(trifluoromethyl)phenyl)acetyl)piperidin-4-yl)-1H-benzo[d]imidazole-2(3H)-one]
body weight of animals, Mean/g (day 0): 21.50 g
body weight of animals, Mean/g (day 4): 21.52 g
body weight of animals, Mean/g (day 7): 21.93 g
body weight of animals, Mean/g (day 11): 21.90 g
body weight of animals, Mean/g (day 14): 21.92 g
body weight of animals, Mean/g (day 18): 22.23 g
body weight of animals, Mean/g (day 20): 22.50 g
body weight of animals, Mean/g (day 25): 22.07 g
body weight of animals, Mean/g (day 28): 21.82 g
body weight of animals, Mean/g (day 31): 21.71 g
body weight of animals, Mean/g (day 33): 21.82 g
body weight of animals, Mean/g (day 35): 21.55 g
body weight of animals, Mean/g (day 38): 21.71 g
body weight of animals, Mean/g (day 40): 21.64 g
body weight of animals, Mean/g (day 42): 21.61 g
body weight of animals, Mean/g (day 45): 21.98 g
effect on body weight of animals (in words) (whole experiment, days 0-45, methotrexate 0.25 mg/kg once a week, tofacitinib 5 mg/kg once a day): no significant effect on body weight of animals, and no drastic changes were seen
